ChEMBL document CHEMBL5209565, “pH biosensor based assay for SLC16A3 using HEK-293 SLC16A3 OE cells” (2022)

Target: T1, Monocarboxylate transporter 4 (Homo sapiens) (UniProt O15427)
T1 sequence (whole entry): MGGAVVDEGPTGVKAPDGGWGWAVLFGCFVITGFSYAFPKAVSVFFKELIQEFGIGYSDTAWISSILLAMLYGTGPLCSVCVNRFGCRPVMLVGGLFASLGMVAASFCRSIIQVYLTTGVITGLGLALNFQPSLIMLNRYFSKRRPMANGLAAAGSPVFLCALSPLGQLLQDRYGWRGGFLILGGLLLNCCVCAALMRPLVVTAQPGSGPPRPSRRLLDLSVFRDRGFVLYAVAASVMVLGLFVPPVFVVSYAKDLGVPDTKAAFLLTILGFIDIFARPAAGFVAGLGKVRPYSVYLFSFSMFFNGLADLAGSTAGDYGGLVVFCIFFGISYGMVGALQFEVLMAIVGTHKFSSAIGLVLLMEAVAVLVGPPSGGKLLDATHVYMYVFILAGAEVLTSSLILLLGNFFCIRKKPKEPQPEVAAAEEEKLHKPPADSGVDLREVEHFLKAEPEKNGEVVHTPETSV
Test: Substrate uptake by the monocarboxylate transporter 4 (MCT4, SLC16A3) as assessed by a sensor pH-sensitive genetically encoded fluorescent sensor (pHAxensor) in HEK-293 JumpIN-SLC16A3 cells (PubChem AID: 1794833)
Type: functional, cell-based
Conditions: HEK293

Question: `CC(O)C(=O)O` (stereo unspecified) was tested. Which proof of principle did it give?
Answer: Substrate. In Comparison To Wild-Type And Not Induced Cells, Cells With Induced Slc16A3 Expression Showed A Specific Transporter Activity, Upon Substrate Addition, Detected As Decrease Of Intracellular Ph, Recorded As Quenching Of The Sensor Fluorescence Signal.
